Results from patent publication US20180118756A1, “COMPOSITIONS AND METHODS OF MODULATING SHORT-CHAIN DEHYDROGENASE ACTIVITY” (CASE WESTERN RESERVE UNIVERSITY, priority 2015, published 2018).
Converted amounts (≈) assume the structure as drawn.

Test system: not listed separately
Experiment: aqueous solubility in pH 7 or pH 4 citrate buffer solution
Format: physicochemical
Conditions: citrate buffer solution, pH 7, aqueous buffer, pH 7 citrate buffer solution; read-out: pH 7 solubility

Compound | solubility
CCCC[S+]([O-])c1sc2nc(-c3cccs3)cc(C)c2c1N (centres unmarked) [SW 208488] | 2.6 µg/mL (≈ 7.42 µM)

Target: T1, recombinant 15-PGDH (Homo sapiens, UniProt P15428)
T1 sequence (P15428 1-266): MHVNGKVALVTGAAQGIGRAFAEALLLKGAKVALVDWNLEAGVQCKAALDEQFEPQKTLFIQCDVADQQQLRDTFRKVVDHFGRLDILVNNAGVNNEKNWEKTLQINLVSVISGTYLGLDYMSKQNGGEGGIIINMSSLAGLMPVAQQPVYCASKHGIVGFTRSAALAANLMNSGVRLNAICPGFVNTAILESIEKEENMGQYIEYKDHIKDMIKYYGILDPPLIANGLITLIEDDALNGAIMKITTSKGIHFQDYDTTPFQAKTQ
Experiment: IC50 for inhibiting enzymatic activity of recombinant 15-PGDH in an in vitro assay
Format: biochemical
Conditions: Enzyme Inhibitor IC50 (nM) at 5 nM 15-PGDH, recombinant human 15-PGDH at 5 nM, in vitro

Compound | IC50
CCCC[S+]([O-])c1sc2nc(-c3cccs3)cc(-c3ccccc3)c2c1NC(C)=O (centres unmarked) [SW 218030, N-(2-(butylsulfinyl)-4-phenyl-6-(thiophen-2-yl)thieno[2,3-b]pyridin-3-yl)acetamide] | 6890 nM
CCCC[S+]([O-])c1sc2nc(-c3nccs3)cc(-c3ccc(CNC(=O)CN(C)C)cc3)c2c1N (centres unmarked) [SW 213210, N-(4-(3-amino-2-(butylsulfinyl)-6-(thiazol-2-yl)thieno[2,3-b]pyridin-4-yl)benzyl)-2-(dimethylamino)acetamide] | 5 nM
CCCC[S+]([O-])c1sc2nc(-c3nccs3)cc(-c3ccc(COC(=O)NCCN(C)C)cc3)c2c1N (centres unmarked) [SW 212834, 4-(3-amino-2-(butylsulfinyl)-6-(thiazol-2-yl)thieno[2,3-b]pyridin-4-yl)benzyl (2-(dimethylamino)ethyl)carbamate] | 3.3 nM
CCCC[S+]([O-])c1sc2nc(-c3nccs3)cc(-c3scnc3C)c2c1N (centres unmarked) [SW 217938, 2-(butylsulfinyl)-4-(4-methylthiazol-5-yl)-6-(thiazol-2-yl)thieno[2,3-b]pyridin-3-amine] | 2.1 nM
CCCC[S+]([O-])c1sc2nc(-c3cccs3)cc(-c3ccccc3)c2c1NC(=O)OC (centres unmarked) [SW 218031, methyl (2-(butylsulfinyl)-4-phenyl-6-(thiophen-2-yl)thieno[2,3-b]pyridin-3-yl)carbamate] | 1380 nM
C=CCNC(=O)COc1ccc(-c2cc(-c3nccs3)nc3sc([S+]([O-])CCCC)c(N)c23)cc1 (centres unmarked) [SW 212835, N-allyl-2-(4-(3-amino-2-(butylsulfinyl)-6-(thiazol-2-yl)thieno[2,3-b]pyridin-4-yl)phenoxy)acetamide] | 4.2 nM
Nc1c(S(=O)(=O)N2CCCCC2)sc2nc(-c3cccs3)cc(-c3ccccc3)c12 [SW 218400] | > 100 nM
CCCC[S+]([O-])c1sc2nc(-c3nccs3)cc(-c3nc(C)c(C)n3C)c2c1N (centres unmarked) [SW 218522, 2-(butylsulfinyl)-6-(thiazol-2-yl)-4-(1,4,5-trimethyl-1H-imidazol-2-yl)thieno[2,3-b]pyridin-3-amine] | 2.5 nM
CCCC[S+]([O-])c1sc2nc(-c3nccs3)cc(-c3c(C)ncn3C)c2c1N (centres unmarked) [SW 218475, 2-(butylsulfinyl)-4-(1,4-dimethyl-1H-imidazol-5-yl)-6-(thiazol-2-yl)thieno[2,3-b]pyridin-3-amine] | 3.4 nM
Nc1c([S+]([O-])c2ccccc2)sc2nc(-c3nccs3)cc(-c3ccc(OCCO)cc3)c12 (centres unmarked) [SW 217997, 2-(4-(3-amino-2-(phenylsulfinyl)-6-(thiazol-2-yl)thieno[2,3-b]pyridin-4-yl)phenoxy)ethan-1-ol] | 12 nM
CCCC[S+]([O-])c1sc2nc(-c3cccs3)cc(-c3ccccc3)c2c1O (centres unmarked) [SW 218399, 2-(butylsulfinyl)-4-phenyl-6-(thiophen-2-yl)thieno[2,3-b]pyridin-3-ol] | 135 nM
CCCC[S+]([O-])c1sc2nc(-c3nccs3)cc(-c3nc(C)cs3)c2c1N (centres unmarked) [SW 217937, 2-(butylsulfinyl)-4-(4-methylthiazol-2-yl)-6-(thiazol-2-yl)thieno[2,3-b]pyridin-3-amine] | 1.8 nM
CCCC[S+]([O-])c1sc2nc(-c3nccs3)cc(-c3ncn(C)c3C)c2c1N (centres unmarked) [SW 218477, 2-(butylsulfinyl)-4-(1,5-dimethyl-1H-imidazol-4-yl)-6-(thiazol-2-yl)thieno[2,3-b]pyridin-3-amine] | 3.8 nM
CCCC[S+]([O-])c1sc2nc(-c3nccs3)cc(-c3cnc(C)n3C3CC3)c2c1N (centres unmarked) [SW 218478, 2-(butylsulfinyl)-4-(1-cyclopropyl-2-methyl-1H-imidazol-5-yl)-6-(thiazol-2-yl)thieno[2,3-b]pyridin-3-amine] | 2.4 nM
COCCC[S+]([O-])c1sc2nc(-c3nccs3)nc(-c3ccccc3)c2c1N (centres unmarked) [SW 217995, 6-((3-methoxypropyl)sulfinyl)-4-phenyl-2-(thiazol-2-yl)thieno[2,3-d]pyrimidin-5-amine] | 3 nM
Nc1c([S+]([O-])C2CCCCC2)sc2nc(-c3cccs3)cc(-c3ccccc3)c12 (centres unmarked) [SW 218520, 2-(cyclohexylsulfinyl)-4-phenyl-6-(thiophen-2-yl)thieno[2,3-b]pyridin-3-amine] | 3.3 nM
CCCC[S+]([O-])c1sc2nc(-c3nccs3)cc(-c3ccc(COCCO)cc3)c2c1N (centres unmarked) [SW 213153, 2-((4-(3-amino-2-(butylsulfinyl)-6-(thiazol-2-yl)thieno[2,3-b]pyridin-4-yl)benzyl)oxy)ethan-1-ol] | 2 nM

Compound | IC50
CCCC[S+]([O-])c1sc2nc(-c3nccs3)cc(-c3cnnn3C)c2c1N (centres unmarked) [SW 217782, 2-(butylsulfinyl)-4-(1-methyl-1H-1,2,3-triazol-5-yl)-6-(thiazol-2-yl)thieno[2,3-b]pyridin-3-amine] | 5.4 nM
CCCC[S+]([O-])c1sc2nc(-c3nccs3)cc(-c3ccnn3C)c2c1N (centres unmarked) [SW 217780, 2-(butylsulfinyl)-4-(1-methyl-1H-pyrazol-5-yl)-6-(thiazol-2-yl)thieno[2,3-b]pyridin-3-amine] | 3.1 nM
CCCC[S+]([O-])c1sc2nc(-c3nccs3)cc(-c3ocnc3C)c2c1N (centres unmarked) [SW 217939, 2-(butylsulfinyl)-4-(4-methyloxazol-5-yl)-6-(thiazol-2-yl)thieno[2,3-b]pyridin-3-amine] | 4.5 nM
CCCNS(=O)(=O)c1sc2nc(-c3cccs3)cc(-c3ccccc3)c2c1N [SW 218332, 3-amino-4-phenyl-N-propyl-6-(thiophen-2-yl)thieno[2,3-b]pyridine-2-sulfonamide] | 113 nM
Nc1c(C(=O)N2CCCCC2)sc2nc(-c3cccs3)cc(-c3ccccc3)c12 [SW 218331, (3-amino-4-phenyl-6-(thiophen-2-yl)thieno[2,3-b]pyridin-2-yl)(piperidin-1-yl)methanone] | 41 nM
CCOC[S+]([O-])c1sc2nc(-c3nccs3)cc(-c3cnc(C)n3C)c2c1N (centres unmarked) [SW 218398, 4-(1,2-dimethyl-1H-imidazol-5-yl)-2-((ethoxymethyl)sulfinyl)-6-(thiazol-2-yl)thieno[2,3-b]pyridin-3-amine] | 9.1 nM
CCCC[S+]([O-])c1sc2nc(-c3nccs3)cc(-c3ccc(CNC(=O)COC)cc3)c2c1N (centres unmarked) [SW 213211, N-(4-(3-amino-2-(butylsulfinyl)-6-(thiazol-2-yl)thieno[2,3-b]pyridin-4-yl)benzyl)-2-methoxyacetamide] | 2.9 nM
CCCC[S+]([O-])c1sc2nc(-c3nccs3)cc(-c3ccc(CC(=O)OC)cc3)c2c1N (centres unmarked) [SW 213150, Methyl 2-(4-(3-amino-2-(butylsulfinyl)-6-(thiazol-2-yl)thieno[2,3-b]pyridin-4-yl)phenyl)acetate] | 4 nM
CCCC[S+]([O-])c1sc2nc(-c3ncc(C)s3)cc(-c3cnc(C)n3C)c2c1N (centres unmarked) [SW 213208, 2-(butylsulfinyl)-4-(1,2-dimethyl-1H-imidazol-5-yl)-6-(5-methylthiazol-2-yl)thieno[2,3-b]pyridin-3-amine] | 7.5 nM
CCCC[S+]([O-])c1sc2nc(-c3nccs3)cc(-c3ccc(C(=O)NCCO)cc3)c2c1N (centres unmarked) [SW 212831, 4-(3-amino-2-(butylsulfinyl)-6-(thiazol-2-yl)thieno[2,3-b]pyridin-4-yl)-N-(2-hydroxyethyl)benzamide] | 4 nM
CCCC[S+]([O-])c1sc2nc(-c3nccs3)cc(-c3ccc(OCCF)cc3)c2c1N (centres unmarked) [SW 217998, 2-(butylsulfinyl)-4-(4-(2-fluoroethoxy)phenyl)-6-(thiazol-2-yl)thieno[2,3-b]pyridin-3-amine] | 3.2 nM
COCC[S+]([O-])c1sc2nc(-c3nccs3)nc(-c3ccccc3)c2c1N (centres unmarked) [SW 217996, 6-((2-methoxyethyl)sulfinyl)-4-phenyl-2-(thiazol-2-yl)thieno[2,3-d]pyrimidin-5-amine] | 3.4 nM
CCCC[S+]([O-])c1sc2nc(-c3nccs3)cc(-c3nccn3CC)c2c1N (centres unmarked) [SW 218521, 2-(butylsulfinyl)-4-(1-ethyl-1H-imidazol-2-yl)-6-(thiazol-2-yl)thieno[2,3-b]pyridin-3-amine] | 2.2 nM
CCCC[S+]([O-])c1sc2nc(-c3nccs3)cc(-c3cnc(OC)n3C)c2c1N (centres unmarked) [SW 213155, 2-(butylsulfinyl)-4-(2-methoxy-1-methyl-1H-imidazol-5-yl)-6-(thiazol-2-yl)thieno[2,3-b]pyridin-3-amine] | 19 nM
CCCC[S+]([O-])c1sc2nc(-c3nccs3)cc(-c3cocn3)c2c1N (centres unmarked) [SW 217936, 2-(butylsulfinyl)-4-(oxazol-4-yl)-6-(thiazol-2-yl)thieno[2,3-b]pyridin-3-amine] | 2.2 nM
CCCC[S+]([O-])c1sc2nc(-c3nccs3)cc(-c3ccc(CNC(=O)NCCO)cc3)c2c1N (centres unmarked) [SW 213209, 1-(4-(3-amino-2-(butylsulfinyl)-6-(thiazol-2-yl)thieno[2,3-b]pyridin-4-yl)benzyl)-3-(2-hydroxyethyl)urea] | 2.8 nM
CCCC[S+]([O-])c1sc2nc(-c3nccs3)cc(-c3cnc(CC)n3C)c2c1N (centres unmarked) [SW 218476, 2-(butylsulfinyl)-4-(2-ethyl-1-methyl-1H-imidazol-5-yl)-6-(thiazol-2-yl)thieno[2,3-b]pyridin-3-amine] | 2 nM

Same assay, conditions: read-out: Enzyme Inhibitor IC50 (nM) at 5 nM 15-PGDH; recombinant human 15-PGDH at 5 nM, in vitro

Compound | IC50
CCCC[S@+]([O-])c1sc2nc(-c3nccs3)cc(-c3cncn3C)c2c1N (single isomer, unassigned) [(−)-SW 217986] | 765 nM
CCCC[S@@+]([O-])c1sc2nc(-c3nccs3)cc(-c3cncn3C)c2c1N (single isomer, unassigned) [(+)-SW 217985] | 0.9 nM

Same assay, conditions: recombinant human 15-PGDH at 5 nM

Compound | extent of 15-PGDH inhibition (remark)
Nc1c(S(=O)(=O)N2CCCCC2)sc2nc(-c3cccs3)cc(-c3ccccc3)c12 [SW 218400] | incomplete inhibition
